Square brackets hold non-standard residues; d marks the D form. Peptide text beside a SMILES is read from it. * marks the point of attachment. dHis(τ-Bn) = N[C@H](Cc1cn(Cc2ccccc2)cn1)C(=O)O; d2Nal = N[C@H](Cc1ccc2ccccc2c1)C(=O)O; pGlu = O=C1CC[C@@H](C(=O)O)N1; tBu = CC(C)(C)*
Assays:
CD4+ and CD8+ T cells = test: MHC class I expression on T cells after stimulation of PBMCs, flow cytometry; assay type: cell-based, human; settings: PBMCs from healthy donor, with IL-2, 72 hours
Method: FIG. 1: Expression of MHC class I after stimulation of T cells with increasing concentrations of GnRH II. PBMCs from a healthy donor was stimulated with GnRH II and IL-2 for 72 hours. Data points represent mean fluorescent intensity of MCH class I expression on CD4^+ T cells (blue triangles) or CD8^+ T cells (black squares) measured with flow cytometry. Human peripheral blood mononuclear cells (PBMCs) were purified from healthy donors with Ficoll-Hypaque density centrifugation. Cells were cultured in RPMI-1640 medium (Invitrogen) supplemented with 10% fetal bovine serum, 100 μg/mL ampicilin and 100 μg/mL streptomycin for 24-72 hours in 37° C., 5% CO2. Cells were stimulated with a compound according to the invention and analysed for expression of cell specific surface markers and […] (monoclonal antibodies from BD Pharmingen) with flow cytomtery.

[1] = Solubility analysis in PBS (Analysis Method B); assay type: physicochemical; settings: pH 7.4
Method: The solubility of compounds of the invention was tested as described in the general methods. Solubility was then graded according to a rating between 1 to 5, where 1 is most soluble and 5 is least soluble.

GnRHR = biological target: T1, GnRHR (Homo sapiens, UniProt P30968); settings: 1000.0
T1 sequence (P30968 1-328): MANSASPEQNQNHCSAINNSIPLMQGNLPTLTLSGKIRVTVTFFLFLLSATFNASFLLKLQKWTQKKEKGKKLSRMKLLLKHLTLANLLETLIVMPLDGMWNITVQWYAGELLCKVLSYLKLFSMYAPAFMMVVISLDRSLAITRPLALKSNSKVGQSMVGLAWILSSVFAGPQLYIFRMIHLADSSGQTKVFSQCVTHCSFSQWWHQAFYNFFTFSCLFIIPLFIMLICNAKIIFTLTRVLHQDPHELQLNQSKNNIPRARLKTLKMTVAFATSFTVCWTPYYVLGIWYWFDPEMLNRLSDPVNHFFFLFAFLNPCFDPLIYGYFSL

Structure (SMILES)	MHC class I expression on T cells (CD4+ and CD8+ T cells)	Solubility grading [1]	GNRHR Stimulation at 1 μM (GnRHR)
NC(=O)CNC(=O)[C@@H]1CCCN1C(=O)[C@H](Cc1ccc(O)cc1)NC(=O)[C@H](Cc1c[nH]c2ccccc12)NC(=O)CNC(=O)[C@H](Cc1c[nH]cn1)NC(=O)[C@H](CO)NC(=O)[C@H](Cc1c[nH]c2ccccc12)NC(=O)[C@H](Cc1c[nH]cn1)NC(=O)[C@@H]1CCC(=O)N1 [GnRH II] ([pGlu]HWSHGWYPG-NH2)	directly activates these cells	–	–
NC(=O)CNC(=O)[C@@H]1CCCN1C(=O)[C@H](Cc1ccc(O)cc1)NC(=O)[C@H](Cc1c[nH]c2ccccc12)NC(=O)[C@@H](Cc1ccc2ccccc2c1)NC(=O)[C@H](Cc1c[nH]cn1)NC(=O)[C@H](CO)NC(=O)[C@H](Cc1c[nH]c2ccccc12)NC(=O)[C@H](Cc1c[nH]cn1)NC(=O)[C@@H]1CCC(=O)N1 [Compound 33, pGlu-His-Trp-Ser-His-D-Nal-Trp-Tyr-Pro-Gly-amide] ([pGlu]HWSH[d2Nal]WYPG-NH2)	–	2	67 percentage
CCNC(=O)[C@@H]1CCCN1C(=O)[C@H](Cc1ccc(O)cc1)NC(=O)[C@H](Cc1c[nH]c2ccccc12)NC(=O)[C@@H](COC(C)(C)C)NC(=O)[C@H](Cc1ccc(O)cc1)NC(=O)[C@H](CO)NC(=O)[C@H](Cc1c[nH]c2ccccc12)NC(=O)[C@H](Cc1c[nH]cn1)NC(=O)[C@@H]1CCC(=O)N1 [Compound 12, pGlu-His-Trp-Ser-Tyr-D-Ser(tBu)-Trp-Tyr-Pro-NHEt] ([pGlu]HWSY[dS](tBu)WYP-NHEt)	–	4	80 percentage
CCNC(=O)[C@@H]1CCCN1C(=O)[C@H](CCCNC(=N)N)NC(=O)[C@H](Cc1c[nH]c2ccccc12)NC(=O)[C@@H](Cc1cn(Cc2ccccc2)cn1)NC(=O)[C@H](Cc1c[nH]cn1)NC(=O)[C@H](CO)NC(=O)[C@H](Cc1c[nH]c2ccccc12)NC(=O)[C@H](Cc1c[nH]cn1)NC(=O)[C@@H]1CCC(=O)N1 [Compound 60, pGlu-His-Trp-Ser-His-D-Bhi-Trp-Arg-Pro-NHEt] ([pGlu]HWSH[dHis(τ-Bn)]WRP-NHEt)	–	2	102 percentage
CCNC(=O)[C@@H]1CCCN1C(=O)[C@H](Cc1ccc(O)cc1)NC(=O)[C@H](CC(C)C)NC(=O)[C@@H](CC(C)C)NC(=O)[C@H](Cc1c[nH]cn1)NC(=O)[C@H](CO)NC(=O)[C@H](Cc1c[nH]c2ccccc12)NC(=O)[C@H](Cc1c[nH]cn1)NC(=O)[C@@H]1CCC(=O)N1 [Compound 48, pGlu-His-Trp-Ser-His-D-Leu-Leu-Tyr-Pro-NHEt] ([pGlu]HWSH[dL]LYP-NHEt)	–	2	118 percentage
CCNC(=O)[C@@H]1CCCN1C(=O)[C@H](CCCNC(=N)N)NC(=O)[C@H](Cc1c[nH]c2ccccc12)NC(=O)[C@@H](COC(C)(C)C)NC(=O)[C@H](Cc1c[nH]cn1)NC(=O)[C@H](CO)NC(=O)[C@H](Cc1c[nH]c2ccccc12)NC(=O)[C@H](Cc1c[nH]cn1)NC(=O)[C@@H]1CCC(=O)N1 [Compound 10, pGlu-His-Trp-Ser-His-D-Ser(tBu)-Trp-Arg-Pro-NHEt] ([pGlu]HWSH[dS](tBu)WRP-NHEt)	–	1	81 percentage

Source: US11564969B2, “Immunorhelin compounds for intracellular infections” (ISR IMMUNE SYSTEM REGULATION HOLDING AB (PUBL), priority 2017, dated 2023)
